Measurements published in US9334246B2, “Substituted triazines for malaria treatment and chemoprophylaxis” (The United States of America, as represented by the …, priority 2013, dated 2016).
Converted amounts (≈) assume the structure as drawn.

How the values were obtained:
Type in all cases: cell-based, Plasmodium falciparum
P. falciparum W2 = assay: Malaria SYBR Green Fluorescence Assay, W2 strain; conditions: for W2 / IC50: SYBR Green Assay; for IC50: Plasmodium falciparum
P. falciparum D6 = assay: Malaria SYBR Green Fluorescence Assay, D6 strain; conditions: for D6 / IC50: SYBR Green Assay; for IC50: Plasmodium falciparum
P. falciparum C235 = assay: Malaria SYBR Green Fluorescence Assay, C235 strain; conditions: for C235 / IC50: SYBR Green Assay; for IC50: Plasmodium falciparum

Compound	W2 (SYBR Green Assay IC50) (P. falciparum W2)	D6 (SYBR Green Assay IC50) (P. falciparum D6)	C235 (SYBR Green Assay IC50) (P. falciparum C235)	W2 (P. falciparum W2)	D6 (P. falciparum D6)	C235 (P. falciparum C235)	also measured
CN1CCC(CNc2nc(-c3ccccc3[N+](=O)[O-])nc(C(Cl)(Cl)Cl)n2)CC1 [Cmpd 516]	0.083 µg/mL	0.292 µg/mL	0.181 µg/mL				
CSC1═CC═C(C═C1)C1═NC(═NC(NC2CCN(CC(C)C)CC2)═N1)C(Cl)(Cl)Cl [Compound 695]				418 ng/mL	582 ng/mL	675 ng/mL	
OCCN1CCN(c2nc(-c3ccc4ccccc4c3)nc(C(Cl)(Cl)Cl)n2)CC1 [Cmpd 305]				23 ng/mL	35 ng/mL	68 ng/mL	
Clc1cc(Cl)cc(-c2nc(NCc3ccccn3)nc(C(Cl)(Cl)Cl)n2)c1 [Cmpd 210]				72 ng/mL	112 ng/mL	78 ng/mL	
COc1ncccc1Nc1nc(N2CCCN(C)CC2)nc(C(Cl)(Cl)Cl)n1 [Cmpd 379]	0.092 µg/mL	0.066 µg/mL	0.159 µg/mL				
CCN(CC)CCNc1nc(-c2ccccc2C)nc(C(Cl)(Cl)Cl)n1 [Cmpd 123]				31 ng/mL	57 ng/mL	67 ng/mL	
CSC1═CC═C(C═C1)C1═NC(═NC(═N1)C(Cl)(Cl)Cl)N1CCC(N)CC1 [Compound 626]	0.007 µg/mL	0.018 µg/mL	0.011 µg/mL				
CC(C)(C)c1ccc(-c2nc(NCCc3ccncc3)nc(C(Cl)(Cl)Cl)n2)cc1 [Cmpd 148]				151 ng/mL	621 ng/mL	671 ng/mL	
CC1(C)C=Cc2cc(-c3nc(NCCN4CCCC4)nc(C(Cl)(Cl)Cl)n3)ccc2O1 [Cmpd 553]	0.01506 µg/mL	0.01863 µg/mL	0.01596 µg/mL				
OCCN1CCN(c2nc(Nc3ccc(OC(F)(F)F)cc3)nc(C(Cl)(Cl)Cl)n2)CC1 [Cmpd 302]				107 ng/mL	166 ng/mL	299 ng/mL	
NC1(CNc2nc(-c3ccc(Cl)cc3)nc(C(Cl)(Cl)Cl)n2)CCOCC1 [Cmpd 333]				15 ng/mL	26 ng/mL	40 ng/mL	
CC(C)N1CCC(CNc2nc(-c3ccc(S(C)(=O)=O)cc3)nc(C(Cl)(Cl)Cl)n2)CC1 [Cmpd 491]	0.018 µg/mL	0.048 µg/mL	0.034 µg/mL				
Cc1ccc(-c2ccccc2-c2nc(NCc3ccncc3)nc(C(Cl)(Cl)Cl)n2)cc1 [Cmpd 299]				148 ng/mL	195 ng/mL	311 ng/mL	
Clc1ccc(cc1Cl)c2nc(nc(n2)C(Cl)(Cl)Cl)N3CC4CC3CN4 [Compound 716]				335.2 ng/mL	540.4 ng/mL	439.4 ng/mL	
Clc1cc(Cl)cc(-c2nc(NCc3cccnc3)nc(C(Cl)(Cl)Cl)n2)c1 [Cmpd 209]				67 ng/mL	122 ng/mL	112 ng/mL	
Oc1ccc(Nc2nc(NCCN3CCCC3)nc(C(Cl)(Cl)Cl)n2)cc1 [Compound 745, 4-((4-((2-(pyrrolidin-1-yl)ethyl)amino)-6-(trichloromethyl)-1,3,5-triazin-2-yl)amino)phenol]							IC50 (P. falciparum W2): 0.08 µg/mL (≈ 0.192 µM); IC50 (P. falciparum D6): 0.144 µg/mL (≈ 0.345 µM); IC50 (P. falciparum C235): 0.389 µg/mL (≈ 0.931 µM)
COc1cccc(-c2nc(NCc3cccnc3)nc(C(Cl)(Cl)Cl)n2)c1 [Cmpd 155]				145 ng/mL	318 ng/mL	614 ng/mL	
CN1CCC(CNc2nc(-c3cc(Cl)cc(Cl)c3)nc(C(Cl)(Cl)Cl)n2)CC1 [Cmpd 514]	0.026 µg/mL	0.079 µg/mL	0.028 µg/mL				
Cc1ccc(-c2nc(N3CCCN(C)CC3)nc(C(Cl)(Cl)Cl)n2)cc1 [Cmpd 112]				107 ng/mL	168 ng/mL	209 ng/mL	
CCN1CCCC(Nc2nc(-c3ccccc3OC)nc(C(Cl)(Cl)Cl)n2)C1 (stereo not drawn) [Cmpd 215]				132 ng/mL	426 ng/mL	248 ng/mL	
CCN1CCCC(Nc2nc(Nc3ccc(OC)nc3)nc(C(Cl)(Cl)Cl)n2)C1 (stereo not drawn) [Cmpd 344]				34 ng/mL	80 ng/mL	98 ng/mL	
NC1CCN(c2nc(-c3ccc(F)cc3)nc(C(Cl)(Cl)Cl)n2)CC1 [Example 2, 1-(4-(4-fluorophenyl)-6-(trichloromethyl)-1,3,5-triazin-2-yl)piperidin-4-amine]							IC50 (P. falciparum W2): 0.078 µg/mL (≈ 0.2 µM); IC50 (P. falciparum D6): 0.137 µg/mL (≈ 0.351 µM); IC50 (P. falciparum C235): 0.15 µg/mL (≈ 0.384 µM)
CN(C)CCCNc1nc(C(Cl)(Cl)Cl)nc(C(Cl)(Cl)Cl)n1.ClC(Cl)(Cl)c1ccc(C(Cl)(Cl)Cl)cc1 [Cmpd 604]	0.363 µg/mL	0.224 µg/mL	0.628 µg/mL				
COc1cccc(-c2nc(NCCC3CCCN3C)nc(C(Cl)(Cl)Cl)n2)c1 (stereo not drawn) [Cmpd 236]				50 ng/mL	52 ng/mL	60 ng/mL	
COc1ccc(-c2nc(NCC3(N)CCCC3)nc(C(Cl)(Cl)Cl)n2)cc1OC [Compound 674, COC1═C(OC)C═C(C═C1)C1═NC(NCC2(N)CCCC2)═NC(═N1)C(Cl)(Cl)Cl]				6 ng/mL	8 ng/mL	18 ng/mL	

Compound	W2 (SYBR Green Assay IC50) (P. falciparum W2)	D6 (SYBR Green Assay IC50) (P. falciparum D6)	C235 (SYBR Green Assay IC50) (P. falciparum C235)	W2 (P. falciparum W2)	D6 (P. falciparum D6)	C235 (P. falciparum C235)	also measured
COc1cc(OC)cc(-c2nc(NC3CC(C)(C)NC(C)(C)C3)nc(C(Cl)(Cl)Cl)n2)c1 [Cmpd 527]	0.021 µg/mL	0.026 µg/mL	0.024 µg/mL				
Clc1ccc(cc1)c2nc(nc(n2)C(Cl)(Cl)Cl)N3CC4CC3CN4 [Compound 717]				163 ng/mL	259 ng/mL	264 ng/mL	
COc1ccc(-c2nc(NCCc3ccccn3)nc(C(Cl)(Cl)Cl)n2)cc1 [Cmpd 185]				63 ng/mL	185 ng/mL	244 ng/mL	
CC1(C)CC(Nc2nc(-c3ccc(F)cc3)nc(C(Cl)(Cl)Cl)n2)CC(C)(C)N1 [Cmpd 391]	0.019 µg/mL	0.043 µg/mL	0.046 µg/mL				
COc1ccc(Nc2nc(N3CCN(C)CC3)nc(C(Cl)(Cl)Cl)n2)cn1 [Cmpd 345]				199 ng/mL	267 ng/mL	1100 ng/mL	
CS(=O)(=O)c1ccc(-c2nc(N3CCCN(CCO)CC3)nc(C(Cl)(Cl)Cl)n2)cc1 [Cmpd 132]				103 ng/mL	64 ng/mL	200 ng/mL	
CN1CCCN(c2nc(-c3ccccc3)nc(C(Cl)(Cl)Cl)n2)CC1 [Cmpd 409]	0.043 µg/mL	0.118 µg/mL	0.119 µg/mL				
CC(C)CN1CCC(CC1)NC1═NC(═NC(═N1)C1═CC═C(C═C1)C1═CC═CC═C1)C(Cl)(Cl)Cl [Compound 699]				430 ng/mL	564 ng/mL	746 ng/mL	
CCN1CCCC(Nc2nc(-c3ccc(OC)c4ccccc34)nc(C(Cl)(Cl)Cl)n2)C1 (stereo not drawn) [Cmpd 280]				76 ng/mL	138 ng/mL	193 ng/mL	
CS(=O)(=O)c1ccc(-c2nc(NCc3ccccn3)nc(C(Cl)(Cl)Cl)n2)cc1 [Cmpd 177]				186 ng/mL	355 ng/mL	565 ng/mL	
CN1CCC(Nc2nc(-c3ccc(F)cc3)nc(C(Cl)(Cl)Cl)n2)CC1 [Cmpd 385]	0.039 µg/mL	0.028 µg/mL	0.057 µg/mL				
CC(C)N1CCC(CNc2nc(-c3cc(Cl)cc(Cl)c3)nc(C(Cl)(Cl)Cl)n2)CC1 [Cmpd 495]	0.01 µg/mL	0.036 µg/mL	0.013 µg/mL				
CN1CCCC1CCNc1nc(Nc2ccc(OC(F)(F)F)cc2)nc(C(Cl)(Cl)Cl)n1 (stereo not drawn) [Cmpd 295]				10 ng/mL	10 ng/mL	23 ng/mL	
CC(C)(N)CNc1nc(-c2ccc(F)cc2)nc(C(Cl)(Cl)Cl)n1 [Cmpd 389]	0.013 µg/mL	0.03 µg/mL	0.045 µg/mL				
COc1ccccc1Cc1nc(NCC(C)(C)N)nc(C(Cl)(Cl)Cl)n1 [Cmpd 292]				34 ng/mL	77 ng/mL	103 ng/mL	
COc1ccc(Nc2nc(NC3CCN(C)CC3)nc(C(Cl)(Cl)Cl)n2)cn1 [Cmpd 349]				129 ng/mL	124 ng/mL	296 ng/mL	
ClC(Cl)(Cl)c1nc(-c2ccc(-c3ccccc3)cc2)nc(N2CCCNCC2)n1 [Cmpd 198]				40 ng/mL	64 ng/mL	70 ng/mL	
CN1CCCN(CC1)C1═NC(NC2═CC═C(OC(F)(F)F)C═C2)═NC(═N1)C(Cl)(Cl)Cl [Compound 658]				625 ng/mL	701 ng/mL	875 ng/mL	
CSc1ccc(-c2nc(NCC3CCN(C)CC3)nc(C(Cl)(Cl)Cl)n2)cc1 [Cmpd 509]	0.098 µg/mL	0.294 µg/mL	0.167 µg/mL				
CN1CCC(Nc2nc(-c3ccc(C(Cl)(Cl)Cl)cc3)nc(C(Cl)(Cl)Cl)n2)CC1 [Cmpd 61]				376 ng/mL	570 ng/mL	556 ng/mL	
CSc1ccc(cc1)c2nc(nc(n2)C(Cl)(Cl)Cl)N3CC4CC3CN4C(═O)OC(C)(C)C [Compound 710]				281 ng/mL	145 ng/mL	571 ng/mL	
COc1cc(OC)cc(-c2nc(NCCN3CCCC3)nc(C(Cl)(Cl)Cl)n2)c1 [Cmpd 476]	0.023 µg/mL	0.057 µg/mL	0.035 µg/mL				
CN(C)CCCNc1nc(-c2ccc(-c3ccccc3)cc2)nc(C(Cl)(Cl)Cl)n1 [Cmpd 445]	0.116 µg/mL	0.151 µg/mL	0.189 µg/mL				
CN1CCCN(c2nc(-c3ccccc3[N+](=O)[O-])nc(C(Cl)(Cl)Cl)n2)CC1 [Cmpd 548]	0.053 µg/mL	0.069 µg/mL	0.07 µg/mL				
